The source of these data is PMC12071598, “Piperazine-Substituted Pyranopyridines Exhibit Antiproliferative Activity and Act as Inhibitors of HBV Virion Production” (International Journal of Molecular Sciences, 2025).

Read-outs that look alike come from different tables or passages of the source.

For orientation: CC50 means the concentration giving 50% cytotoxicity. A word on the IC50: it is the concentration that gives 50% inhibition. For orientation: GI50 means the concentration at which growth is held to half of that of the control.

A short description of series [1]: Cytotoxicity by MTS assay in MDCK cells. Format: cell-based. The following applies: dog, read-out: Influenza A Virus CC50. Here is the method: Production of influenza A virus (H1N1) stock and its infection of MDCK cells, as well as infection of Vero E6 cells with SARS-CoV-2, were described previously. Cytotoxicity of the compounds towards MDCK and VeroE6 cells was assessed by seeding 18,000 cells/well of […] plates in 0.1 mL DMEM, treating with the compounds for 66 h, and measuring cell viability by MTS assay. As positive controls, oseltamivir and N-hydroxicytidine were used (obtained from Sigma).
The compounds were added at non-toxic concentrations in serum-free DMEM to the respective cells; one hour later, the serial 10-fold dilutions of influenza virus or SARS-CoV-2 were added in serum-free medium, and antiviral activity was determined by the reduction in the infectious titer of the virus by cytopathic action (CPE). Calculation of 50% cytotoxic concentration (CC50) and 50% effective concentration (IC50) was performed by standard methods using Microsoft Excel 5.0 and GraphPad Prism 8 (GraphPad Software Inc., Boston, MA, USA).
In general terms: Formazan colour is commonly taken as a measure of viable cells.

For series [2], the system named is Influenza A virus. The series can be described thus: microbe, parasite or virus in culture. The class given is cell-based, influenza A virus (H1N1).
The test system of series [3] is SH-SY5Y. The series can be described thus: Antiproliferative activity, crystal violet staining, SH-SY5Y. Format: cell-based. The following applies: Homo sapiens, SH-SY5Y neuroblastoma, 72 h.
In series [4] the test system is HepaRG. Description: Cytotoxicity towards non-tumor differentiated HepaRG cells, MTT. Format: cell-based, human. The following applies: concentration decreasing number of viable cells by 50%; for IC50: Homo sapiens.
For series [5], the system named is hepatitis B virus (HBV). The series can be described thus: microbe, parasite or virus in culture. The class given is cell-based. Conditions: for log reduction at 1 µM / log reduction at 10 µM: Hepatitis B virus, 144 h; for Extracellular HBV DNA (Δlog10): 1 µM, 6 days treatment, conditioned medium (virion production).
Series [6] deals with SARS-CoV-2. The series can be described thus: microbe, parasite or virus in culture. Format: cell-based.
In series [7] the test system is DU145. Description: Antiproliferative activity, MTT assay, DU145. Conditions: Homo sapiens, DU-145, DU145 prostate carcinoma, 72 h. The class given is cell-based.
For series [8], the system named is HeLa. Description: Antiproliferative activity, MTT assay, HeLa. Format: cell-based. The following applies: Homo sapiens, HeLa cervix carcinoma, 72 h.
Series [9] concerns NDV. Description: microbe, parasite or virus in culture. The following applies: avian paramyxovirus 1, 48 h, read-out: NDV IC50, µM. Format: cell-based, Newcastle disease virus.
Series [10] relates to PV1. Description: microbe, parasite or virus in culture. The class given is cell-based, poliovirus type 1. Conditions: Enterovirus C, 48 h, read-out: PV1 IC50, µM.
The subject of series [11] is A549. Description: Antiproliferative activity, MTT assay, A549. The class given is cell-based. Conditions: Homo sapiens, A549 lung carcinoma, 72 h.
For series [12], the system named is HSV-1. The series can be described thus: microbe, parasite or virus in culture. The class given is cell-based, herpes simplex virus type 1. Conditions: Human alphaherpesvirus 1, 48 h, read-out: HSV-1 IC50, µM.
Series [13] concerns K562. Description: Antiproliferative activity, MTT assay, K562. Format: cell-based. Conditions: Homo sapiens, K562 chronic myeloid leukemia, 72 h.
In series [14] the test system is VV. The series can be described thus: microbe, parasite or virus in culture. The class given is cell-based. Conditions: Orthopoxvirus vaccinia, 48 h, read-out: VV IC50, µM.
Series [15] relates to DU145. Conditions: discussed for DU145; cited from earlier work.
The test system of series [16] is A549 cells. The series can be described thus: Intracellular ROS assay, DCFH2-DA in A549 cells. The class given is cell-based. The following applies: A549, 10 µM, 72 h. An excerpt: As cell death is often triggered by increased production of reactive oxygen species (ROS), the next step was to evaluate if our compounds act as pro-oxidants. ROS production was accessed using cell-permeable redox sensitive DCFH2-DA dye. […] As one of the main sites of ROS production is mitochondria, we also evaluated their membrane potential during treatment with either DO11-46 or DO11-48. […] Lysosome activation often accompany late stages of apoptosis, which is in good accordance with our data on the induction of caspase3/7 activity.
Pro-oxidant activity of the compounds was studied by quantification of ROS production using a cell-permeable fluorogenic probe 2′,7′-dichlorodihydrofluorescein diacetate (DCFH2-DA). A549 cells were seeded on a 48-well plate at a density of 10,000 cells/well. Twenty-four hours later, the compounds were added to 10 µM concentration in quadruplicate, and the cells were kept for 72 h. As a positive control, A549 cells were treated with 1 mM H2O2 for 2 h prior analysis. Then, media were replaced with the fresh FBS-lacking DMEM supplemented with 25 µM DCFH2-DA. After 45 min incubation, the cells were washed 10 times with 500 µL PBS, resuspended in 200 µL PBS and transferred to a black 96-well plate. The fluorescence intensities (FLIs) were measured using CHAMELEON V microplate reader with excitation at 485 nm and emission at 535 nm.

[17] abbreviates: read-out: Extracellular HBV DNA (Δlog10).
Setting [18] is: read-out: Intracellular Total HBV RNA (Δlog10).
Where [19] appears, read: Severe acute respiratory syndrome coronavirus 2, Vero C1008, read-out: SARS-CoV-2 IC50, µM.

For `CCOC(=O)C1=C[C@@H](OC(CC)CC)[C@H](NC(C)=O)[C@@H](N)C1` [Oseltamivir, reference compound], the 50% cytotoxic concentration (CC50) at 66 h in [1] is over 10 µM. For the same molecule, in series [2], the “Influenza A Virus Δlgmax” value was 6.0. The half-maximal inhibitory concentration (IC50) in [2] (Influenza A virus, MDCK, read-out: Influenza A Virus IC50, µM) worked out at 0.02 µM.

With `CNC(=O)c1cc(Oc2ccc(NC(=O)Nc3ccc(Cl)c(C(F)(F)F)c3)cc2)ccn1` [Sorafenib, reference compound], the results for the half-inhibitory concentration (IC50) in series [3] and in [4] were 40 ± 10 µM and over 100 µM, respectively.

For `CC(=O)c1ccc(NC(=O)CSc2nc(N3CCNCC3)c3c(c2C#N)CC(C)(C)OC3)cc1` [DO11-50, N-(4-acetylphenyl)-2-[(5-cyano-3,3-dimethyl-8-piperazin-1-yl-3,4-dihydro-1H-pyrano[3,4-c]pyridin-6-yl)thio]acetamide], the log reduction at 1 µM in series [5] (setting [17]) and in [5] (setting [18]) was under 0.5 in each case. For the same molecule, the log reduction at 10 µM in series [5] (setting [17]) and in series [5] (setting [18]) was under 0.5 throughout. Also, in series [6], the “SARS-CoV-2 Δlgmax” value amounted to 0. Besides, the half-maximal inhibitory concentration (IC50) in series [6] (setting [19]) is over 15 µM; in series [3], 13.2 ± 4.3 µM; in series [7], 26.7 ± 8.4 µM; in [4], 42.4 ± 8.3 µM; in [8], 74.5 ± 3.5 µM; in series [9], over 5 µM. In addition, the concentration for half-maximal inhibition (IC50) in series [10] is over 5 µM; in [11], 45.8 ± 12.6 µM; in series [12] it was over 5 µM; in series [13], 45.6 ± 20 µM; in series [14], over 5 µM. In addition, the 50% cytotoxic concentration (CC50) at 66 h in series [1] came out at 1270 µM. Further, in series [2], the “Influenza A Virus Δlgmax” value is 0.

With `Fc1ccc(C(c2ccc(F)cc2)N2CCNCC2)cc1` [1-bis(4-fluorophenyl)methylpiperazine], the GI50 in series [15] is 1.8 µM.

`FC(F)(F)c1ccc(CN2CCNCC2)cc1` [[4-(trifluoromethyl)benzyl]piperazine]: the GI50 in series [15] is 1.6 µM.

In the case of `O=c1[nH]cc(F)c(=O)[nH]1` [5-Fluorouracil, reference compound], the IC50 is 1.5 ± 0.2 µM in series [3], 1.2 ± 0.3 µM in [8] and 1.3 ± 0.3 µM in series [13].

Take `O=c1nc(NO)ccn1[C@@H]1O[C@H](CO)[C@@H](O)[C@H]1O` [N-HydroxyC, N-hydroxicytidine, reference compound]: in series [6], the “SARS-CoV-2 Δlgmax” value stood at 5.0. In addition, in series [6] (read-out: SARS-CoV-2 IC50), the IC50 turned out to be 0.5 µM.

On to `Nc1ccn([C@@H]2CS[C@H](CO)O2)c(=O)n1` [3TC, Lamivudine, reference compound], for which the log reduction at 1 µM in [5] (setting [17]) is 0.93; in series [5] (setting [18]) it was under 0.5. For the same molecule, the log reduction at 10 µM in [5] (setting [17]) is 1.04; in series [5] (setting [18]) it was under 0.5.

As for `CC1(C)Cc2c(C#N)c(SCc3ccccc3Cl)nc(N3CCNCC3)c2CO1` [DO11-42, 6-[(2-Chlorobenzyl)thio]-3,3-dimethyl-8-piperazin-1-yl-3,4-dihydro-1H-pyrano[3,4-c]pyridine-5-carbonitrile], in series [5], the “Extracellular HBV DNA (Δlog10)” value is reported as “significantly reduced levels of virion production”. Further, the values for the log reduction at 1 µM in series [5] (setting [17]) and in series [5] (setting [18]) were 2.52 ± 0.36 and under 0.5, respectively. The log reduction at 10 µM in [5] (setting [17]) turned out to be 2.31 ± 0.29; in series [5] (setting [18]) it was 0.53 ± 0.31. Also, in series [6], the “SARS-CoV-2 Δlgmax” value came out at 0. Further, the IC50 in series [6] (setting [19]) was over 15 µM; in [3] it was 4.5 ± 1.8 µM; in series [7], 1.3 ± 0.2 µM; in [4] it was 24.5 ± 2.8 µM; in series [8], 1.9 ± 0.3 µM; in series [9], over 7.5 µM. Also, the IC50 in series [10] was over 7.5 µM; in series [11], 7 ± 1.9 µM; in series [12], over 7.5 µM; in series [13] it was 1.5 ± 0.8 µM; in series [14], over 7.5 µM. The CC50 at 66 h in series [1] stood at 440 µM. Further, the ROS generation result in [16] is given as “significantly increased ROS generation”. The “Influenza A Virus Δlgmax” value in series [2] came to 0.5.

As to `CC1(C)Cc2c(C#N)c(SCC(N)=O)nc(N3CCNCC3)c2CO1` [DO11-37, 2-[(5-Cyano-3,3-dimethyl-8-piperazin-1-yl-3,4-dihydro-1H-pyrano[3,4-c]pyridin-6-yl)thio]acetamide], the “Extracellular HBV DNA (Δlog10)” value in [5] is reported as “significantly reduced levels of virion production”. Also, the log reduction at 1 µM in series [5] (setting [17]) is 1.97 ± 0.03; in series [5] (setting [18]), under 0.5. Besides, the values for the log reduction at 10 µM in series [5] (setting [17]) and in series [5] (setting [18]) were 2.32 ± 0.16 and under 0.5, respectively. The 50% inhibitory concentration (IC50) is over 200 µM in series [6] (setting [19]); 99.4 ± 21.4 µM in series [3]; 225 ± 52.4 µM in [7]; 968 ± 87.8 µM in series [4]; 133 ± 38 µM in series [8]; over 300 µM in [9]. The IC50 in series [10] is over 300 µM; in series [11], 294 ± 35.9 µM; in series [12], over 300 µM; in series [13], 91.4 ± 29.6 µM; in [14], over 300 µM. Moreover, in series [1], the CC50 at 66 h was 1680 µM. Besides, the “IC50 (µM) HepaRG” value in series [4] is given as “almost non-toxic”.
